Test results taken from ChEMBL document CHEMBL1153236, “Non-aromatic A-ring replacement in the triaryl bis-sulfone CB2 receptor inhibitors” (Bioorg Med Chem Lett, 2010).

Species on record: Rattus norvegicus
Details: in vivo, 6 h

Row | SMILES | AUC [µM]
1 | O=S(=O)(c1ccccn1)c1ccc(Cl)cc1S(=O)(=O)N1CCC2(CC1)CC2NS(=O)(=O)C(F)(F)F (stereo not drawn) | 6.1
2 | O=S(=O)(c1ccccn1)c1ccc(OC(F)(F)F)cc1S(=O)(=O)N1CCC2(CC1)CC2NS(=O)(=O)C(F)(F)F (stereo not drawn) | 7.3
3 | O=S(=O)(c1ccccc1F)c1cc(Cl)ccc1S(=O)(=O)N1CCC(CNS(=O)(=O)C(F)(F)F)CC1 | 1.9
